What was measured:
[1] = biological target: T1, B1R receptor of the rat (CHO K1 cells stably transfected with the B1R gene of the rat) (Rattus norvegicus, UniProt P97583); test: Functional study on the bradykinin receptor 1 (B1R), Ca2+ fluorescence (Fluo-4) FLIPR/Novostar assay, rB1R cells; assay type: cell-based; details: CHO-K1, 10 μM, read-out: % inhibition (rat B1R) at 10 μM
T1 construct: expressed in transfected cells; host or cells: CHO K1 cells (Chinese hamster ovary), stably transfected
T1 sequence (P97583 1-337): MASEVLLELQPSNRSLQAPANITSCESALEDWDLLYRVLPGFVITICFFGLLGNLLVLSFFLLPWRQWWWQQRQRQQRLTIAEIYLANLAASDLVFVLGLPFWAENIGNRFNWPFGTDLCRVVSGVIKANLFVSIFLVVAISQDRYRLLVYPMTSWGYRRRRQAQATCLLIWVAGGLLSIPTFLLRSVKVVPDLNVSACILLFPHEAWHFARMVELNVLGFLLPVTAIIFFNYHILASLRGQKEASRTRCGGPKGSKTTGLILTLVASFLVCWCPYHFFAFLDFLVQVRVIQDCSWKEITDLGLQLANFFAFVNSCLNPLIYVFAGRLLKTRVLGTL
How it was run: (§1)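 Ca2+ influx (Fluo-4, peak fluorescence, λex 488/λem 540 nm) was measured in CHO K1 lines expressing rat or human B1R. After a 10 μM test-compound pre-addition scoring % activation, cells received EC80 agonist: Des-Arg9-bradykinin for rat, Lys-Des-Arg9-bradykinin for human. Antagonism was expressed as % of maximum inhibition, with IC50 from varied concentrations.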

[2] = biological target: T2, human B1R receptor (CHO K1 cells stably transfected with the human B1R gene) (Homo sapiens, UniProt P46663); test: Functional study on the bradykinin receptor 1 (B1R), Ca2+ fluorescence (Fluo-4) FLIPR/Novostar assay, hB1R cells; assay type: cell-based; details: CHO-K1, read-out: % inhibition (human B1R) at 10 μM
T2 construct: expressed in transfected cells; host or cells: CHO K1 cells (Chinese hamster ovary), stably transfected
T2 sequence (P46663 1-353): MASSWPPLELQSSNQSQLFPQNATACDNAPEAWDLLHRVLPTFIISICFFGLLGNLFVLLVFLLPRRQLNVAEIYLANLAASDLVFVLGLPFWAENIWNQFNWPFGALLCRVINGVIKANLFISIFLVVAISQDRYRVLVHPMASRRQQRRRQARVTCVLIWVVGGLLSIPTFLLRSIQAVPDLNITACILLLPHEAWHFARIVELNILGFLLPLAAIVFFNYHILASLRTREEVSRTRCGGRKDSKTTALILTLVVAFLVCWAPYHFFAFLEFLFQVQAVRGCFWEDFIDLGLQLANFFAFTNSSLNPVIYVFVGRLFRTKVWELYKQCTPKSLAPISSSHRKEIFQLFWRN
How it was run: as §1

| Structure (SMILES) | inhibition at 10 µM [1] [%] | inhibition at 10 µM [2] [%] |
| --- | --- | --- |
| CN(C(=O)c1ccc2c(c1)[C@H](NC(=O)c1ccccc1Cl)CC2)C1CCN(c2ccnc(N3CCCC3)c2)CC1 [Example H-124, (3R)-3-[(2-Chloro-benzoyl)amino]-N-methyl-N-[1-(2-pyrrolidin-1-yl-pyridin-4-yl)-piperidin-4-yl]-2,3-dihydro-1H-indene-5-carboxylic acid amide] | 108 | 100 |
| Cc1nsc(N2CCC(N(C)C(=O)c3ccc4c(c3)[C@H](NC(=O)c3ccccc3Cl)CC4)CC2)n1 [Example H-125, (3R)-3-[(2-Chloro-benzoyl)amino]-N-methyl-N-[1-(3-methyl-[1,2,4]thiadiazol-5-yl)-piperidin-4-yl]-2,3-dihydro-1H-indene-5-carboxylic acid amide] | 104 | 70 |
| COc1nc(C)cc(N2CCC(N(C)C(=O)c3ccc4c(c3)[C@H](NC(=O)c3ccccc3Cl)CC4)CC2)n1 [Example H-126, (3R)-3-[(2-Chloro-benzoyl)amino]-N-[1-(2-methoxy-6-methyl-pyrimidin-4-yl)-piperidin-4-yl]-N-methyl-2,3-dihydro-1H-indene-5-carboxylic acid amide] | 104 | 100 |
| CN(C(=O)c1ccc2c(c1)[C@H](NC(=O)c1ccccc1Cl)CC2)C1CCN(c2ncnc3ccccc23)CC1 [Example H-127, (3R)-3-[(2-Chloro-benzoyl)amino]-N-methyl-N-(1-quinazolin-4-yl-piperidin-4-yl)-2,3-dihydro-1H-indene-5-carboxylic acid amide] | 91 | 96 |
| Cc1cc(N2CCC(N(C)C(=O)c3ccc4c(c3)[C@H](N3Cc5cccc(Cl)c5C3=O)CC4)CC2)nc(C)n1 [Example H-130, (3R)-3-(4-Chloro-3-oxo-1,2-dihydro-isoindol-2-yl)-N-[1-(2,6-dimethyl-pyrimidin-4-yl)-piperidin-4-yl]-N-methyl-2,3-dihydro-1H-indene-5-carboxylic acid amide] | 101 | 99 |
| COc1c(C)cnc(CN2CCC(N(C)C(=O)c3ccc4c(c3)[C@H](NC(=O)c3ccccc3Cl)CC4)CC2)c1C [Example H-131, (3R)-3-[(2-Chloro-benzoyl)amino]-N-[1-[(4-methoxy-3,5-dimethyl-pyridin-2-yl)-methyl]-piperidin-4-yl]-N-methyl-2,3-dihydro-1H-indene-5-carboxylic acid amide] | 77 | 55 |
| Cc1cc(CN2CCC(N(C)C(=O)c3ccc4c(c3)[C@H](NC(=O)c3ccccc3Cl)CC4)CC2)on1 [Example H-134, (3R)-3-[(2-Chloro-benzoyl)amino] N-methyl-N-[1-[(3-methyl-isoxazol-5-yl)-methyl]-piperidin-4-yl]-2,3-dihydro-1H-indene-5-carboxylic acid amide] | 55 | 8 |
| CN(CC1CCN(c2ccncn2)CC1)C(=O)c1ccc2c(c1)[C@H](NC(=O)c1ccccc1Cl)CC2 [Example H-136, (3R)-3-[(2-Chloro-benzoyl)amino]-N-methy-N-[(1-pyrimidin-4-yl-piperidin-4-yl)-methyl]-2,3-dihydro-1H-indene-5-carboxylic acid amide] | 107 | 41 |
| CN1CCN(C(=O)CN2CCC(N(C)C(=O)c3ccc4c(c3)[C@H](NC(=O)c3ccccc3Cl)CC4)CC2)CC1 [Example H-138, (3R)-3-[(2-Chloro-benzoyl)amino]-N-methyl-N-[1-[2-(4-methyl-piperazin-l-yl)-2-oxo-ethyl]-piperidin-4-yl]-2,3-dihydro-1H-indene-5-carboxylic acid amide] | 41 | 91 |
| Cc1cc(N2CCC(N(C)C(=O)c3ccc4c(c3)[C@H](NC(=O)c3ccccc3Cl)CC4)CC2)nc(C(C)C)n1 [Example H-139, (3R)-3-[(2-Chloro-benzoyl)amino]-N-[1-(2-isopropyl-6-methyl-pyrimidin-4-yl)-piperidin-4-yl]-N-methyl-2,3-dihydro-1H-indene-5-carboxylic acid amide] | 97 | 100 |
| CN(C(=O)c1ccc2c(c1)[C@H](NC(=O)c1ccccc1Cl)CC2)C1CCN(CC(=O)N2CCCC2)CC1 [Example H-140, (3R)-3-[(2-Chloro-benzoyl)amino]-N-methyl-N-[1-(2-oxo-2-pyrrolidin-1-yl-ethyl)-piperidin-4-yl]-2,3-dihydro-1H-indene-5-carboxylic acid amide] | 49 | 47 |
| Cc1cc(N2CCC(N(C)C(=O)c3ccc4c(c3)[C@H](NC(=O)c3ccccc3Cl)CC4)CC2)ncn1 [Example H-141, (3R)-3-[(2-Chloro-benzoyl)amino]-N-methyl-N-[1-(6-methyl-pyrimidin-4-yl)-piperidin-4-yl]-2,3-dihydro-1H-indene-5-carboxylic acid amide] | 105 | 99 |
| Cc1cc(N2CCC(N(C)C(=O)c3cc4c(cc3F)[C@H](N3Cc5cccc(Cl)c5C3=O)CC4)CC2)nc(C)n1 [Example H-142, (1R)-1-(4-Chloro-3-oxo-1,2-dihydro-isoindol-2-yl)-N-[1-(2,6-dimethyl-pyrimidin-4-yl)-piperidin-4-yl]-6-fluoro-N-methyl-2,3-dihydro-1H-indene-5-carboxylic acid amide] | 98 | 99 |
| Cc1cc(N2CCC(N(C)C(=O)c3cc4c(cc3F)[C@H](NC(=O)c3cc(C)on3)CC4)CC2)nc(C)n1 [Example H-143, N-[(1R)-5-[[1-(2,6-Dimethyl-pyrimidin-4-yl)-piperidin-4-yl]-methyl-carbamoyl]-6-fluoro-2,3-dihydro-1H-inden-1-yl]-5-methyl-isoxazole-3-carboxylic acid amide] | 31 | 98 |

The remaining lines, values ahead:

| inhibition at 10 µM [1] [%] | inhibition at 10 µM [2] [%] | Structure (SMILES) |
| --- | --- | --- |
| 100 | 99 | Cc1cc(N2CCC(N(C)C(=O)c3ccc4c(c3)[C@H](NC(=O)c3ccccc3F)CC4)CC2)nc(C)n1 [Example H-128, (3R)-N-[1-(2,6-Dimethyl-pyrimidin-4-yl)-piperidin-4-yl]-3-[(2-fluoro-benzoyl)amino]-N-methyl-2,3-dihydro-1H-indene-5-carboxylic acid amide] |
| 98 | 100 | Cc1cc(N2CCC(N(C)C(=O)c3ccc4c(c3)[C@H](NC(=O)c3cccc(F)c3Cl)CC4)CC2)nc(C)n1 [Example H-129, (3R)-3-[(2-Chloro-3-fluoro-benzoyl)amino]-N-[1-(2,6-dimethyl-pyrimidin-4-yl)-piperidin-4-yl]-N-methyl-2,3-dihydro-1H-indene-5-carboxylic acid amide] |
| 99 | 99 | Cc1cc(N2CCC(N(C)C(=O)c3ccc4c(c3)[C@H](NC(=O)c3ccccc3C(F)(F)F)CC4)CC2)nc(C)n1 [Example H-132, (3R)-N-[1-(2,6-Dimethyl-pyrimidin-4-yl)-piperidin-4-yl]-N-methyl-3-[[2-(trifluoromethyl)-benzoyl]amino]-2,3-dihydro-1H-indene-5-carboxylic acid amide] |
| 100 | 99 | Cc1cc(N2CCC(N(C)C(=O)c3ccc4c(c3)[C@H](NC(=O)c3cc(F)ccc3Cl)CC4)CC2)nc(C)n1 [Example H-133, (3R)-3-[(2-Chloro-5-fluoro-benzoyl)amino]-N-[1-(2,6-dimethyl-pyrimidin-4-yl)-piperidin-4-yl]-N-methyl-2,3-dihydro-1H-indene-5-carboxylic acid amide] |
| 106 | 99 | Cc1cc(N2CCC(N(C)C(=O)c3ccc4c(c3)[C@H](NC(=O)c3cccc(C(F)(F)F)c3Cl)CC4)CC2)nc(C)n1 [Example H-135, (3R)-3-[[2-Chloro-3-(trifluoromethyl)-benzoyl]amino]-N-[1-(2,6-dimethyl-pyrimidin-4-yl)-piperidin-4-yl]-N-methyl-2,3-dihydro-1H-indene-5-carboxylic acid amide] |
| 109 | 99 | Cc1cc(N2CCC(N(C)C(=O)c3ccc4c(c3)[C@H](NC(=O)c3cc(C(F)(F)F)ccc3Cl)CC4)CC2)nc(C)n1 [Example H-137, (3R)-3-[[2-Chloro-5-(trifluoromethyl)-benzoyl]amino]-N-[1-(2,6-dimethyl-pyrimidin-4-yl)-piperidin-4-yl]-N-methyl-2,3-dihydro-1H-indene-5-carboxylic acid amide] |
